Our source for the mortality and pest or weed control values is patent publication US12171229B2, “Heteroaryl-triazole and heteroaryl-tetrazole compounds as pesticides” (BAYER AKTIENGESELLSCHAFT, priority 2018, dated 2024).

Molecules are shown by their SMILES.

Holding throughout (type): in vivo
One assay deals with Ctenocephalides felis. Briefly: Ctenocephalides felis oral test. As to conditions: 48 h, 100 ppm in cattle blood, after 2 days, adult unfed cat fleas. As to the method:
Ctenocephalides Felis—Oral Test
Solvent: dimethyl sulfoxide
To produce a suitable preparation of active compound, 10 mg of active compound are dissolved in 0.5 ml solvent, and the concentrate is diluted with cattle blood to the desired concentration.
Approximately 20 adult unfed cat fleas (Ctenocephalides felis) are placed in flea chambers. The blood chamber, sealed with parafilm on the bottom, are filled with cattle blood supplied with compound solution and placed on the gauze covered top of the flea chamber, so that the fleas are able to suck the blood. The blood chamber is heated to 37° C. whereas the flea chamber is kept at room temperature.
After 2 days mortality in % is determined. 100% means all the fleas have been killed; 0% means none of the fleas have been killed.

In the next assay the test system is Spodoptera frugiperda. Briefly: Spodoptera frugiperda spray test. As to conditions: 168 h, after 7 days, larvae on maize leaf sections. As to the method:
Spodoptera frugiperda—Spray Test
To produce a suitable preparation of active compound, 1 part by weight of active compound is mixed with the stated amount of solvents and is diluted with water, containing an emulsifier concentration of 1000 ppm, to the desired concentration. Further test concentrations are prepared by dilution with emulsifier containing water.
Maize (Zea mays) leaf sections are sprayed with a preparation of the active ingredient of the desired concentration. Once dry, the leaf sections are infested with fall armyworm larvae (Spodoptera frugiperda).
After 7 days mortality in % is determined. 100% means all caterpillars have been killed and 0% means none of the caterpillars have been killed.

The subject of the next assay is Boophilus microplus. In words: Boophilus microplus injection test. As to conditions: Rhipicephalus microplus, 168 h; 20 μg/animal injected into the abdomen; adult engorged female ticks; egg deposition after 7 days; read-out: efficacy (infertile eggs). As to the method: Boophilus Microplus—Injection Test Solvent: dimethyl sulfoxide To produce a suitable preparation of active compound, 10 mg of active compound are dissolved in 0.5 ml solvent, and the concentrate is diluted with solvent to the desired concentration. Five adult engorged female ticks (Boophilus microplus) are injected with 1 μl compound solution into the abdomen. The ticks are transferred into replica plates and incubated in a climate chamber. After 7 days egg deposition of fertile eggs is monitored. Eggs where fertility is not visible are stored in a climate chamber till hatching after about 42 days. An efficacy of 100% means all eggs are infertile; 0% means all eggs are fertile.

In another assay the test system is Diabrotica balteata. In words: Diabrotica balteata spray test. As to conditions: Diabrotica balteata, in Triticum aestivum, 168 h, after 7 days, larvae on wheat seeds, read-out: efficacy (seedlings grown up); for pest or weed control at 80 µg/disc, 250 g/ha: 80 μg/well (=250 g/ha); for pest or weed control at 160 µg/disc, 500 g/ha: 160 μg/well (=500 g/ha). As to the method:
Diabrotica balteata—Spray Test [table] To produce a suitable preparation of active compound, 1 part by weight of active compound is mixed with the stated amount of solvent, and the concentrate is diluted with water, containing an emulsifier concentration of 1000 ppm, to the desired concentration. Further test concentrations are prepared by dilution with emulsifier containing water. Soaked wheat seeds (Triticum aestivum) are placed in a multiple well plate filled with agar and some water and are incubated for 1 day to germinate (5 seeds per well). The germinated wheat seeds are sprayed with a test solution containing the desired concentration of the active ingredient. Afterwards each unit is infected with 10-20 larvae of the banded cucumber beetle (Diabrotica balteata). After 7 days efficacy in % is determined. 100% means all the seedlings have grown up like in the untreated, uninfected control; 0% means none of the seedlings have grown.

The next assay deals with Myzus persicae. Briefly: Myzus persicae oral test. Particulars: 120 h, 4 ppm, after 5 days. As to the method: Solvent: 100 parts by weight acetone
To produce a suitable preparation of active compound, 1 part by weight of active compound is mixed with the stated amount of solvent, and the concentrate is diluted with water to the desired concentration.
50 μl compound solution is filled in microtiter plates and 150 μl IPL41 insect medium (33%+15% sugar) is added to obtain a total volume of 200 μl per well. Afterwards the plates are sealed with parafilm through which a mixed population of the green peach aphid (Myzus persicae) can suck on the compound preparation.
After 5 days mortality in % is determined. 100% means all aphids have been killed and 0% means none of the aphids have been killed.

The next assay relates to Nezara viridula. Briefly: Nezara viridula spray test. Particulars: 96 h, after 4 days, larvae on barley plants. As to the method:
Nezara viridula—Spray Test
To produce a suitable preparation of active compound, 1 part by weight of active compound is mixed with the stated amount of solvent, and the concentrate is diluted with water, containing an emulsifier concentration of 1000 ppm, to the desired concentration. Further test concentrations are prepared by dilution with emulsifier containing water.
Barley plants (Hordeum vulgare) infested with larvae of the southern green stink bug (Nezara viridula) are sprayed with a test solution containing the desired concentration of the active ingredient.
After 4 days mortality in % is determined. 100% means all the stink bugs have been killed: 0% means none of the stink bugs have been killed.

The mortality is the share of the test organisms that died. High values mean fewer survivors, low ones more survivors. `C[C@H](NC(=O)c1cc(Cl)cc(C(F)(F)F)c1)c1ncnn1-c1ccc(OC(F)(F)F)cn1` [Example I-016] registered a mortality at 100 ppm in the assay on Ctenocephalides felis of 100%. Further, in the assay with Spodoptera frugiperda, the mortality at 100 g/ha was found to be 100% and the mortality at 500 g/ha was 100%. In addition, in the assay on Boophilus microplus, the pest or weed control at 0.02 mg turned out to be 100%. In addition, in the assay on Diabrotica balteata, the pest or weed control at 80 µg/disc, 250 g/ha stood at 100% and the pest or weed control at 160 µg/disc, 500 g/ha was 100%.
For the compound `C[C@H](NC(=O)c1cc(Cl)cc(C(F)(F)F)c1)c1ncnn1-c1ccc(S(=O)(=O)C(F)(F)F)cn1` [Example I-027, 3-chloro-5-(trifluoromethyl)-N-[(1S)-1-(1-{5-[(trifluoromethyl)sulfonyl]pyridin-2-yl}-1H-1,2,4-triazol-5-yl)ethyl]benzamide], the mortality at 100 ppm in the assay with Ctenocephalides felis came out at 100%. In the assay with Spodoptera frugiperda, the mortality at 100 g/ha was found to be 100% and the mortality at 500 g/ha came to 100%. The pest or weed control at 0.02 mg in the assay on Boophilus microplus was 100%. In the assay with Diabrotica balteata, the pest or weed control at 80 µg/disc, 250 g/ha stood at 100% and the pest or weed control at 160 µg/disc, 500 g/ha came out at 100%.
`C[C@H](NC(=O)c1cc(Cl)cc(C(F)(F)F)c1)c1ncnn1-c1cn(C)nc1C(F)F` [Example I-032] gave a mortality at 100 ppm in the assay with Ctenocephalides felis of 100%. Besides, in the assay on Boophilus microplus, the pest or weed control at 0.02 mg is 100%. In the assay on Diabrotica balteata, the pest or weed control at 80 µg/disc, 250 g/ha was 100% and the pest or weed control at 160 µg/disc, 500 g/ha worked out at 100%.
In the case of `C[C@H](NC(=O)c1cc(Cl)cc(C(F)(F)F)c1)c1ncnn1-c1ccc(NC(=O)c2ccc(F)cc2)cn1` [Example I-036], the mortality at 4 ppm with Myzus persicae was found to be 100%. The mortality at 100 ppm in the assay on Ctenocephalides felis is 100%. In the assay on Spodoptera frugiperda, this compound registered a mortality at 100 g/ha of 100% and a mortality at 500 g/ha of 100%. Further, in the assay on Boophilus microplus, the pest or weed control at 0.02 mg amounted to 100%. For the same compound, in the assay with Diabrotica balteata, the pest or weed control at 80 µg/disc, 250 g/ha came to 100% and the pest or weed control at 160 µg/disc, 500 g/ha was 100%.
For the compound `Cc1cc(C(=O)N[C@@H](C)c2ncnn2-c2ccc(C#N)cn2)cc(C(F)(F)F)c1` [Example I-040], the mortality at 4 ppm in the assay on Myzus persicae was determined as 100%. In the assay on Ctenocephalides felis, this compound gave a mortality at 100 ppm of 100%. For the same compound, in the assay with Spodoptera frugiperda, the mortality at 100 g/ha amounted to 100% and the mortality at 500 g/ha turned out to be 100%. Besides, the pest or weed control at 0.02 mg with Boophilus microplus is 100%. In the assay on Diabrotica balteata, the pest or weed control at 80 µg/disc, 250 g/ha was 100% and the pest or weed control at 160 µg/disc, 500 g/ha is 100%.
In the assay on Ctenocephalides felis, `C[C@H](NC(=O)c1cc(Cl)cc(C(F)(F)F)c1)c1ncnn1-c1cn(C)nc1C(F)(F)F` [Example I-044] had a mortality at 100 ppm of 100%. In the assay with Boophilus microplus, the pest or weed control at 0.02 mg is 100%. For the same compound, in the assay with Diabrotica balteata, the pest or weed control at 80 µg/disc, 250 g/ha amounted to 100% and the pest or weed control at 160 µg/disc, 500 g/ha was 80%.
In the assay on Ctenocephalides felis, `C[C@H](NC(=O)c1cc(Cl)cc(C(F)(F)F)c1)c1ncnn1-c1ccc(-n2ccc(C(F)(F)F)n2)cn1` [Example I-045, 3-chloro-5-(trifluoromethyl)-N-[(1S)-1-(1-{5-[3-(trifluoromethyl)-1H-pyrazol-1-yl]pyridin-2-yl}-1H-1,2,4-triazol-5-yl)ethyl]benzamide] returned a mortality at 100 ppm of 95%. Also, in the assay with Spodoptera frugiperda, the mortality at 100 g/ha was 100% and the mortality at 500 g/ha turned out to be 100%. In the assay with Boophilus microplus, the pest or weed control at 0.02 mg amounted to 100%. In addition, in the assay with Diabrotica balteata, the pest or weed control at 80 µg/disc, 250 g/ha is 100% and the pest or weed control at 160 µg/disc, 500 g/ha came to 80%.
In turn, `C[C@H](NC(=O)c1cncc(Br)c1)c1ncnn1-c1ccc(C#N)cn1` [Example I-053] came in with a mortality at 100 ppm with Ctenocephalides felis of 100%. This compound showed a mortality at 500 g/ha in the assay on Spodoptera frugiperda of 100%. Also, in the assay on Boophilus microplus, the pest or weed control at 0.02 mg was found to be 100%. In addition, in the assay on Diabrotica balteata, the pest or weed control at 80 µg/disc, 250 g/ha is 100% and the pest or weed control at 160 µg/disc, 500 g/ha was 100%.
In turn, `C[C@H](NC(=O)c1cc(Cl)cc(C(F)(F)F)c1)c1ncnn1-c1nc2ccccc2o1` [Example I-057] showed a mortality at 100 ppm with Ctenocephalides felis of 90%. Also, the pest or weed control at 0.02 mg in the assay with Boophilus microplus is 80%. In the assay on Diabrotica balteata, the pest or weed control at 80 µg/disc, 250 g/ha turned out to be 100% and the pest or weed control at 160 µg/disc, 500 g/ha is 80%.
In the assay with Nezara viridula, `C[C@H](NC(=O)c1cc(Cl)cc(C(F)(F)F)c1)c1ncnn1-c1ccc(S(C)(=O)=O)cn1` [Example I-062] showed a mortality at 500 g/ha of 100%. Also, the mortality at 100 ppm with Ctenocephalides felis was determined as 100%. In the assay with Spodoptera frugiperda, the mortality at 100 g/ha is 100% and the mortality at 500 g/ha came to 100%. In addition, the pest or weed control at 0.02 mg in the assay on Boophilus microplus is 100%. In the assay on Diabrotica balteata, the pest or weed control at 80 µg/disc, 250 g/ha was 100% and the pest or weed control at 160 µg/disc, 500 g/ha was 100%.
The compound `C[C@H](NC(=O)c1cc(Cl)cc(C(F)(F)F)c1)c1ncnn1-c1ccc(NC(=O)C(F)(F)F)cn1` [Example I-072] registered a mortality at 4 ppm in the assay on Myzus persicae of 90%. In addition, in the assay on Spodoptera frugiperda, the mortality at 100 g/ha came out at 83% and the mortality at 500 g/ha worked out at 100%. For the same compound, in the assay on Diabrotica balteata, the pest or weed control at 80 µg/disc, 250 g/ha amounted to 100% and the pest or weed control at 160 µg/disc, 500 g/ha worked out at 100%.
As for `C[C@H](NC(=O)c1cc(Cl)cc(C(F)(F)F)c1)c1ncnn1-c1ccc(C(N)=O)cn1` [Example I-100], in the assay on Myzus persicae, the mortality at 4 ppm was 100%. For the same compound, the mortality at 500 g/ha in the assay with Nezara viridula turned out to be 100%. The mortality at 100 ppm in the assay with Ctenocephalides felis worked out at 100%. In the assay on Spodoptera frugiperda, this compound registered a mortality at 100 g/ha of 100% and a mortality at 500 g/ha of 100%. In the assay with Diabrotica balteata, the pest or weed control at 80 µg/disc, 250 g/ha amounted to 100% and the pest or weed control at 160 µg/disc, 500 g/ha was found to be 100%.
`C[C@H](NC(=O)c1cc(Cl)cc(OC(F)(F)F)c1)c1ncnn1-c1ccc(N)cn1` [Example I-101]: in the assay on Myzus persicae, the mortality at 4 ppm was 100%. For the same compound, the mortality at 500 g/ha in the assay on Nezara viridula was found to be 100%. For the same compound, the mortality at 500 g/ha in the assay with Spodoptera frugiperda worked out at 100%. In the assay on Diabrotica balteata, the pest or weed control at 80 µg/disc, 250 g/ha amounted to 100% and the pest or weed control at 160 µg/disc, 500 g/ha was found to be 100%.
Turning to `C[C@H](NC(=O)c1cc(C(F)(F)F)cc(C(F)(F)F)c1)c1ncnn1-c1nccs1` [Example I-103], the mortality at 4 ppm in the assay on Myzus persicae is 100%. Besides, in the assay on Nezara viridula, the mortality at 100 g/ha was determined as 100% and the mortality at 500 g/ha turned out to be 100%. In addition, in the assay with Spodoptera frugiperda, the mortality at 100 g/ha is 100% and the mortality at 500 g/ha is 100%. Moreover, in the assay with Diabrotica balteata, the pest or weed control at 80 µg/disc, 250 g/ha came out at 100% and the pest or weed control at 160 µg/disc, 500 g/ha was 100%.
Compound `C[C@H](NC(=O)c1cc(Cl)cc(C(F)(F)F)c1)c1ncnn1-c1ccc(C(=O)NC2(C#N)CC2)cn1` [Example I-112] yielded a mortality at 4 ppm in the assay on Myzus persicae of 90%. In addition, in the assay with Nezara viridula, the mortality at 100 g/ha stood at 100% and the mortality at 500 g/ha was found to be 100%. Moreover, in the assay on Spodoptera frugiperda, the mortality at 500 g/ha came out at 83%. The pest or weed control at 160 µg/disc, 500 g/ha with Diabrotica balteata was found to be 100%.
